For the assay, the target named is T1, NDH-1MS (NDH-1_3), photosynthetic complex I; NdhF3 subunit (Thermosynechococcus vestitus, UniProt Q8DKF5).
T1 construct: native complex from T. elongatus thylakoid membranes, C-terminal TwinStrep tag on CupS; NdhV not resolved; with CO2 hydration protein CupA; CO2 uptake protein CupS; NAD(P)H-quinone oxidoreductase chain 4-3; NAD(P)H-quinone oxidoreductase subunit 1; NAD(P)H-quinone oxidoreductase subunit 2; NAD(P)H-quinone oxidoreductase subunit 3; NAD(P)H-quinone oxidoreductase subunit 4L; NAD(P)H-quinone oxidoreductase subunit 6; NAD(P)H-quinone oxidoreductase subunit L; NAD(P)H-quinone oxidoreductase subunit S; NAD(P)H-quinone oxidoreductase subunit H; NAD(P)H-quinone oxidoreductase subunit I; NAD(P)H-quinone oxidoreductase subunit J; NAD(P)H-quinone oxidoreductase subunit K; NAD(P)H-quinone oxidoreductase subunit M; NAD(P)H-quinone oxidoreductase subunit N; NAD(P)H-quinone oxidoreductase subunit O
T1 sequence (Q8DKF5 1-611): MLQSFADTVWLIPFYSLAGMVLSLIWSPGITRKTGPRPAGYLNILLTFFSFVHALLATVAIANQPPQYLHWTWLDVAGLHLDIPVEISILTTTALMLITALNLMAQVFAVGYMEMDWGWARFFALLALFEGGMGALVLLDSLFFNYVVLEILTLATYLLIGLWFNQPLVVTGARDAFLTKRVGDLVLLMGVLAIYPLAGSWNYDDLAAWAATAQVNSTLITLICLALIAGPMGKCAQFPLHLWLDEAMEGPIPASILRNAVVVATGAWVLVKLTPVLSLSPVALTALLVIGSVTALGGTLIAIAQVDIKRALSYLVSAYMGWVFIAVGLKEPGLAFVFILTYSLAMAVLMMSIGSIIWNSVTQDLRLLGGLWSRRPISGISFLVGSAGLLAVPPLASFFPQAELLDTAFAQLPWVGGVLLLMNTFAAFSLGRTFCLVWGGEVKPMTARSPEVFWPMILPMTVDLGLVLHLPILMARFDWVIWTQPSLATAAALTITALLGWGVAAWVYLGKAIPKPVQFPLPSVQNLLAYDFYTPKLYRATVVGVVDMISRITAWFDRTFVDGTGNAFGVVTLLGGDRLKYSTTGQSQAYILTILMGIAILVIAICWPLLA
As to the kind of experiment: cryo-EM structure, […] Å. It counts as binding. Particulars: co-purified; motif with chlorophyll a in NdhF3.

Structures are written as SMILES.

These results are taken from paper PMC6981117, “Redox-coupled proton pumping drives carbon concentration in the photosynthetic complex I” (Nature Communications, 2020).

For `CC1=C(/C=C/C(C)=C/C=C/C(C)=C/C=C/C=C(C)/C=C/C=C(C)/C=C/C2=C(C)CCCC2(C)C)C(C)(C)CCC1` [β-carotene], the “cryo-EM structure, 3.2 Å” value was “NdhF3 binds a chlorophyll a/β-carotene motif that connects via His469 of NdhF3”.
